The subject of series [1] is mouse red blood cells. Description: In vitro red blood cell-based assay (oxygen equilibrium curve, Softron analyzer). As to conditions: final effector concentration 2 mM, mean ± SD; for P50/P50C: P50C = control with 1% DMSO; for P50: 1% DMSO; for P50 / ∆P50: mouse red blood cells; for ∆P50: ∆P50 = P50 − P50C. An excerpt: In the first stage of our research, three series of analogues were designed and synthesized to explore refinement of the hydrophobic parts of 19f, 19m, 24a and 24b; hinge areas of 18g, 19b and 19y; and tail regions of 15c, 15d and 16c, respectively. We used the Softron Analyzer to evaluate the effect of these compounds on the half-blood oxygen saturation(P50) value of red blood cells. The most promising phenoxyaromatic acid compound, efaproxiral, was used as a positive control. […] The results reminded us that the modification of the hydrophobic part or linker extension is beneficial to improve an allosteric effect.
Eight-week-old female C57BL6J mice were purchased from Beijing Vital River Laboratory Animal Technology Co., Ltd. A total of 540 μL mouse blood was added into the 1.5 mL centrifuge tube, followed by adding 60 μL 3.8% sodium citrate. The mixture was then centrifuged at 1500 rpm for 10 min, the supernatant was carefully aspirated, and the cells were washed three times with PBS solution. After mixing packed red blood cells with Alsever’s solution in a ratio of 1:1, a blood gas analyzer (RADIOMETER ABL 90) was used to analyze the red blood cell density and hemoglobin concentration.
All of the compounds were prepared as 200 mM stock solutions in DMSO. Oxygen equilibrium measurements were performed with the Softron analyzer (Softron Medical Products, Beijing, China) using mouse red blood cells. The samples were prepared by adding 3 mg hemoglobin equivalent of red blood cells into 3.92 mL loading buffer (100 mM NaCl, 50 mM bis-Tris at pH 7.2 and 25 °C), followed by 20 μL 10% Dimethicone as a defoamer and 20 μL 20% BSA. Afterwards, 40 μL stock solution was added, and the mixture was loaded to the sample cell and fully deoxygenated by blowing into nitrogen at 37 °C for 15 min. Then, the oxygen equilibrium curve was recorded by blowing into oxygen.

The test system of a further series is HEK293 cells. Description: Cell Titer-Glo cytotoxicity assay, HEK293. The class given is cell-based. As to conditions: for cytotoxicity (summary statement): HEK293 (normal) cells. The protocol:
(§1) For further in vivo evaluation of newly synthesized compounds, 19c and 19t were selected as candidates. Hemoglobin allosteric effectors require a relatively high blood concentration to be effective. Cytotoxicity evaluation was conducted out of consideration for medication safety. HEK293 and U87MG cells were used to evaluate the cytotoxicity.
(§2) Luciferase-transfected human glioma cells (U87-luc) and HEK293 cells were kindly provided by Dr. Nie and cultured in Dulbecco’s Modified Eagle Medium (CM10013, MacGene) with 10% fetal bovine serum (1966173C, Gibco) and 1% penicillin-streptomycin in a humidified atmosphere of 5% CO2 at 37 °C.
(§3) Cells were plated in a 96-well plate at a density of 2000 cells/well and then treated with 19c or 19t at gradient concentrations of 10^1, 10^2, 10^3, 10^4, 10^5, 10^6and 10^7 nM. Compounds 19c and 19t were prepared as the sodium salt by adding saturated sodium bicarbonate in the process of stock solution preparation. Cell viability was evaluated on the indicated days after treatment with a Cell Titer-Glo Luminescent Cell Viability Assay kit (G7572, Promega, Madison, WI, USA) according to the manufacturer’s instructions. All data were normalized to those on day 0 and presented as the mean ± standard deviation (SD).
For orientation: In ATP-based viability assays light output follows the ATP content of the culture.

The subject of the next series is U87MG cells. Briefly: Cell Titer-Glo cytotoxicity assay, U87MG. The class given is cell-based, human. The following applies: for cytotoxicity (summary statement): U87MG (glioma) cells. How it is done: as §1, §2, §3
Series [2] relates to luciferase-labeled U87MG implanted into Balb/c nude mice brains. Briefly: In vivo radiosensitization on orthotopically transplanted GB. Details: species or system mouse. The following applies: for overall survival time of tumor-bearing mice compared to vehicle control: 150 mg/kg ip combined with IR. The protocol: In order to evaluate in vivo antitumor effects, luciferase-labeled U87MG was implanted into Balb/c nude mice brains. A small animal bioluminescence imaging system was applied to trace the tumor formation and dynamic changes in GB size. Cobalt 60 was used for fractionated-dose whole-brain irradiation therapy (IR). The tumor was irradiated with a total dose of 12 Gy in four fractions of 3 Gy at a dose rate of 0.3 Gy/min. Efaproxiral or 19c was administrated at a dosage of 150 mg/kg by intraperitoneal injection (ip) every four days over a period of sixteen days. IR was conducted 15 min after ip.
Four-week-old female BALB/c nude mice were purchased from Beijing Vital River Laboratory Animal Technology Co., Ltd. Animals were monitored daily by certified veterinary staff and laboratory personnel. All mice used in this study were maintained in a pathogen-free barrier animal facility. The study was in compliance with all relevant ethical regulations regarding animal research. All animal experiments were approved by the Institutional Animal Care and Use Committee at the Beijing Institute of Basic Medical Sciences. The U87-luc cells were processed and resuspended into basal medium at a concentration of 10^7 cells/mL. Next, 8 × 10^5 U87-luc glioma cells were implanted into the right frontal lobes of each nude mouse. Ten days after tumor implantation, tumor-bearing mice were randomly divided into six groups according to the tumor size and subjected to the indicated treatment (n = 6). Administration of drugs (150mg/kg) or vehicle was performed once every 4 days four consecutive times by intraperitoneal injection. All radiation treatments were performed 25 min after the drug or vehicle was given. Tumors on the brains of mice were irradiated at a dosage of 3 Gy four consecutive times using a ^60Co γ irradiator. The dose rate was 0.3 Gy/min. The bodies of the mice were shielded using lead blocks. The tumor progress was tracked by a small animal live bioluminescence imaging system (LB983NC100U, Germany).

A short description of series [3]: Pharmacokinetic study in rats. The class given is in vivo. As to conditions: rat; for AUC(0-inf) / AUC(0-t) / Cmax / Tmax / half-life / MRT inf: male, Sprague-Dawley, plasma; for MRT inf: read-out: MRTInf_obs; for AUC_%Extrap_obs: (AUCinf−AUClast)/AUCinf. The protocol:
Based on the potential radiosensitization effects in vivo, we performed an in vivo pharmacokinetic (PK) study to preliminarily evaluate the druggability of 19c at a dosage of 100 mg/kg by intraperitoneal injection (ip) or oral administration (po).
The pharmacokinetic experiments with 19c in rats were performed by Beijing Pharmaron, Inc. All animals were maintained in the pathogen-free barrier animal facility, and the experiments were approved by the Animal Care and Use Committee of the company. The drug solution was formulated into a 10 mg/mL solution with normal saline on the day of administration. After a single dose of 19c (100 mg/kg) by intraperitoneal injection (ip) or oral administration (po) in male Sprague-Dawley rats (n = 3), blood samples were collected 0.25, 0.5, 1, 2, 4, 6, 8 and 24 h post dose and centrifuged at 4000× g for 5 min at 4 °C to obtain plasma. The plasma was diluted 3 times with water. A measure of 2 µL of diluted supernatant was injected into the LC/MS/MS system for quantitative analysis. […] The Phoenix WinNonlin 8.0 software was applied for the calculation of pharmacokinetic parameters.

Series [4] concerns mouse red blood cells. Briefly: In vitro red blood cell-based assay (oxygen equilibrium curve, Softron analyzer).

pIC50: −log10 of the molar value. Where “and” joins values, the source holds several entries; their conditions need not be identical. Equal entries are not always repeated. Entries after “also recorded” stand apart in the source; their conditions may differ. Where two headings read alike, the source gives them in different places.

In general, AUC(0-inf) refers to total exposure, with the tail of the curve extrapolated. In general, AUC(0-t) refers to exposure summed from dosing to a finite time, without extrapolation to infinity. Lower therefore signals less exposure. By Cmax is commonly meant the maximum level reached in the sampled fluid or tissue. In general, Tmax refers to the time from dosing to the highest level. In general, half-life refers to how long it takes for the measured level to halve. As for `Cc1cc(C)cc(NC(=O)CCc2ccc(OC(C)(C)C(=O)O)cc2)c1` [19c, 2-(4-(3-((3,5-dimethylphenyl)amino)-3-oxopropyl)phenoxy)-2-methylpropanoic acid], in the series with mouse red blood cells [1], the P50/P50C is 2.04 ± 0.04; the P50 stood at 89.16 ± 5.20 mmHg; the “∆P50” value is 45.50 mmHg and 45.50 ± 1.73 mmHg. Also, the “cytotoxicity (summary statement)” value in the series on HEK293 cells is “no cytotoxicity”. In the series on HEK293 cells (HEK293 cells, concentration of 5 mM), the cytotoxicity entry was “no cytotoxic effect”. The “cytotoxicity (summary statement)” value with U87MG cells is on record as “no cytotoxicity”. In the series on U87MG cells (U87MG cells, concentration of 5 mM), the cytotoxicity result is on record as “no cytotoxic effect”. In addition, the “overall survival time of tumor-bearing mice compared to vehicle control” value in series [2] is “could improve the overall survival time”. In series [2] (orthotopically transplanted GB in mouse brains), the “radiosensitization effect in vivo (summary statement)” value is “exhibited a radiosensitization effect; also recorded: effective GB radiosensitizer”. Further, in series [3] (ip 100 mg/kg), the AUC(0-inf) stood at 612 µg·h/mL, the AUC_%Extrap_obs was determined as 0.0362% and the AUClast/D is on record as 6122. Further, in series [3] (ip 100 mg/kg, saline), the AUC(0-t) was found to be 612 µg·h/mL, the highest level (Cmax) was 202 µg/mL, the Tmax amounted to 0.25 h and the half-life was 2.55 h. In series [3] (ip 100 mg/kg, saline), the MRT inf was found to be 2.32 h and the AUCinf is 612,428 h*ng/mL. Besides, in series [3] (po 100 mg/kg, saline), the AUC(0-inf) is 411 µg·h/mL, the AUC(0-t) was 410 µg·h/mL, the concentration peaked (Cmax) at 111 µg/mL and the Tmax is 2 h. In addition, in series [3] (po 100 mg/kg, saline), the half-life was 2.78 h and the MRT inf amounted to 2.58 h. The oral availability entry in series [3] is listed as “orally available”. In series [3] (po 100 mg/kg), this compound yielded an AUC_%Extrap_obs of 0.0522% and an AUClast/D of 4104. Further, the “clinical symptoms during the PK experiment” value in series [3] (single dose 100 mg/kg ip or po) is reported as “No abnormal clinical symptoms”. In the series with mouse red blood cells [4] (2 mM, change in acidity, OEC shift), the “influence on the Bohr effect of red blood cells” value is “will not offset the Bohr effect; also recorded: preserved the Bohr effect”. In addition, in the series on mouse red blood cells [4] (different concentrations, oxygen dissociation curve), the “dose–response relationship of oxygen affinity of hemoglobin” value is “dose-dependently altered the oxygen affinity of hemoglobin; also recorded: exerts an allosteric effect on hemoglobin at a micromolar level”.
Consider `Cc1cc(C)cc(NC(=O)Cc2ccc(OC(C)(C)C(=O)O)cc2)c1` [Efaproxiral, 2-(4-(2-((3,5-dimethylphenyl)amino)-2-oxoethyl)phenoxy)-2-methylpropanoic acid, reference compound], for which, in the series on mouse red blood cells [1], the P50/P50C was found to be 1.79 ± 0.02, the P50 is reported as 82.50 ± 1.01 mmHg and the “∆P50” value is reported as 36.40 mmHg. Further, the “∆P50” value in the series with mouse red blood cells [1] (listed as Efaproxiral ( 19a )) is given as 36.40 ± 1.01 mmHg. Besides, the “overall survival time of tumor-bearing mice compared to vehicle control” value in series [2] is on record as “could improve the overall survival time”.
The term pIC50 denotes −log10 of the IC50, conventionally taken in molar units. Turning to “(E)-2-methyl-2-(4-(3-((3-(methylthio)phenyl)amino)-3-oxoprop-1-en-1- yl)phenoxy) propanoic acid [19t]”, in the series on mouse red blood cells [1], the P50/P50C was determined as 2.13 ± 0.07; the P50 was determined as 89.62 ± 2.02 mmHg; the “K (Hill coefficient of the oxygen dissociation curve at 50% saturation)” value is 2.43 ± 0.16; the “∆P50” value was 44.38 mmHg and 44.38 ± 2.02 mmHg. The “cytotoxicity (summary statement)” value in the series on HEK293 cells was “cytotoxic toward both cells with no selectivity; also recorded: cytotoxic to both normal and glioma cells at low micromolar levels without selectivity”. In the series on HEK293 cells (HEK293 cells, concentration of 10 μm), the cytotoxicity result is recorded as “showed cytotoxicity”. In the series with HEK293 cells (HEK293 cells, sodium salt stock), the TC50 was 165 µM. The “cytotoxicity (summary statement)” value in the series with U87MG cells was “cytotoxic toward both cells with no selectivity; also recorded: cytotoxic to both normal and glioma cells at low micromolar levels without selectivity”. In addition, the cytotoxicity entry in the series with U87MG cells (U87MG cells, concentration of 10 μm) is reported as “showed cytotoxicity”. In addition, the pIC50 in the series with U87MG cells (U87MG cells, sodium salt stock) was 3.74.

Values taken from paper PMC9024523, “Phenoxyaromatic Acid Analogues as Novel Radiotherapy Sensitizers: Design, Synthesis and Biological Evaluation” (Molecules, 2022).
